Read-outs that look alike come from different tables or passages of the source.
Experiments:
[1] = system: PC-3; assay: XTT cytotoxicity assay, 5-day culture, PC-3; type: cell-based; conditions: Homo sapiens, 120 h, PC-3, Prostate Ca, 5 days, read-out: IC50 (μM ± SEM)
Procedure: (§1) Actinonin was assayed for cytotoxity in human ovarian carcinoma, prostate carcinoma, mammary carcinoma, head and neck squamous cell carcinoma (HNSSC), non-small-cell-lung-cancer adenocarcinoma (NSCLC-AdCa), and non-small-cell-lung-cancer squamous cells (NSCLC-SSC) (15). Actinonin was also tested against acute mylegenous leukemia (AML) cells.

[2] = system: DU-145; assay: XTT cytotoxicity assay, 5-day culture, DU-145; type: cell-based; conditions: Homo sapiens, 120 h, DU-145, Prostate Ca, 5 days, read-out: IC50 (μM ± SEM)
Procedure: as §1

[3] = system: A2780; assay: XTT cytotoxicity assay, 5-day culture, A2780; type: cell-based; conditions: Homo sapiens, 120 h, A2780, Ovarian Ca, 5 days, read-out: IC50 (μM ± SEM)
Procedure: as §1

[4] = system: all the cell lines tested; assay: Cytotoxicity of actinonin, summary over all cell lines tested; type: cell-based, human; conditions: in the μM range
Procedure: as §1

[5] = system: HL60 (acute myeloid leukemia, CD13 positive) cells; assay: Inhibition of tritiated thymidine incorporation, 5 day, HL60; type: cell-based; conditions: Homo sapiens, HL-60, 120 h, HL60, 5 days
Procedure: (§2) Actinonin was purchased from Sigma (St. Louis, Mo.). Biotinylated-Actinonin and all analogs were synthesized. Actinonin stock solution was 5 mg/ml in 10% ethanol. Biotinylated-actinonin and all other analogs were diluted in 10% DMSO to give stock solutions in the range of 1-20 mg/ml.
(§3) Daudi (B lineage Burkitt's lymphoma, CD13 negative) and HL60 (acute myeloid leukemia, CD13 positive) cells were maintained in culture using RPMI 1640 supplemented with 10% heat-inactivated FBS (Omega Scientific, Inc., Tarzana, Calif.) and 1% L-glutamine (Gibco/Invitrogen, Carlsbad, Calif.) at 37° C. in a humidified atmosphere of 5% CO2. Cell viability was higher than 90%, and cells were free of mycoplasma contamination.
(§4) An aliquot of 200 ul of cells (10,000 cells/well) was washed and incubated at 37° C. in 96-well plates in the presence or absence of actinonin/analogs. Serial dilutions were made in complete media. After 5 days of incubation, 50 ul of 10 uCi/mL tritiated thymidine (PerkinElmer, Boston, Mass.) was added to each well and allowed to incorporate for 5 hours. Plates were frozen at −80° C. overnight and cells were harvested onto filtermats (Wallac, Finland) using a semi-automatic harvester (Skatron, Sterling, Va.). Filtermats were counted in a 1205 Betaplate™ liquid scintillation counter (Wallac, Finland). The reference numbers refer to those analogs disclosed in Example 6. Compounds 35, 42, 48, 52, 53, and 56 are effective at inhibiting cell growth.

[6] = system: SK-LC-16; assay: XTT cytotoxicity assay, 5-day culture, SK-LC-16; type: cell-based; conditions: Homo sapiens, 120 h, SK-LC-16, NSCLC-SSC, 5 days, read-out: IC50 (μM ± SEM)
Procedure: as §1

[7] = system: Daudi (B lineage Burkitt's lymphoma, CD13 negative) cells; assay: Inhibition of tritiated thymidine incorporation, 5 day, Daudi; type: cell-based; conditions: Homo sapiens, 120 h, 5 days
Procedure: as §2, §3, §4

[8] = system: MDA-MB468; assay: XTT cytotoxicity assay, 5-day culture, MDA-MB468; type: cell-based; conditions: Homo sapiens, MDA-MB-468, 120 h, MDA-MB468, Mammary Ca, 5 days, read-out: IC50 (μM ± SEM)
Procedure: as §1

[9] = system: tumor cell lines; conditions: cited from earlier work
[10] = system: CWR22 human prostate tumor; conditions: for Change in tumor Vol. (mm^3): initial 45 mm^3; for Ave. Tumor Diameter (mm ± SEM): initial tumor diameter 4.4
Procedure: Actinonin was also evaluated against the CWR22 human prostate tumor xenografted in nude mice (15).

[11] = system: HL-60; assay: XTT cytotoxicity assay, 5-day culture, HL-60; type: cell-based; conditions: Homo sapiens, 120 h, HL-60, PML, 5 days, read-out: IC50 (μM ± SEM)
Procedure: as §1

[12] = system: AKR leukemia; conditions: cited from earlier work
[13] = system: TSU-PR^1; assay: XTT cytotoxicity assay, 5-day culture, TSU-PR1; type: cell-based; conditions: Homo sapiens, 120 h, TSU-PR1, Prostate Ca, 5 days, read-out: IC50 (μM ± SEM)
Procedure: as §1

[14] = system: HT1080; assay: XTT cytotoxicity assay, 5-day culture, HT1080; type: cell-based; conditions: Homo sapiens, HT-1080, 120 h, HT1080, HNSSC, 5 days, read-out: IC50 (μM ± SEM)
Procedure: as §1

[15] = system: SK-BRIII; assay: XTT cytotoxicity assay, 5-day culture, SK-BRIII; type: cell-based; conditions: Homo sapiens, 120 h, Mammary Ca, 5 days, read-out: IC50 (μM ± SEM)
Procedure: as §1

[16] = system: SK-LC-8; assay: XTT cytotoxicity assay, 5-day culture, SK-LC-8; type: cell-based; conditions: Homo sapiens, 120 h, SK-LC-8, NSCLC-AdCa, 5 days, read-out: IC50 (μM ± SEM)
Procedure: as §1

[17] = system: human leukemia and lymphoma cells; conditions: cited from earlier work

Which IC50 [1] does the source give for `CCCCC[C@H](CC(=O)NO)C(=O)N[C@H](C(=O)N1CCC[C@H]1CO)C(C)C` [Actinonin, (S,S,R)-(−)-Actinonin] here?
Its IC50 is 10 ± 1 µM.

And the IC50 [2]?
Its IC50 is 17 µM.

What about the IC50 [3] of the same compound?
The IC50 was 4.8 ± 1 µM.

What about the “cytotoxicity against all the cell lines tested” value [4] of the same compound?
Its value is “remarkably cytotoxic”.

What about the IC50 ([5]; read-out: HL60 IC50 (uM), 5 day thymidine incorporation) of the same compound?
Its IC50 is 10.6 µM.

What about the IC50 ([5]; read-out: HL60 IC50 (ug/mL), 5 day thymidine incorporation) of the same compound?
The IC50 was 4.1 µg/mL.

What about the IC50 [6] of the same compound?
Its IC50 is 12 ± 2 µM.

And the IC50 ([7]; read-out: Daudi IC50 (uM), 5 day thymidine incorporation)?
The IC50 was 6.7 µM.

And the IC50 ([7]; read-out: Daudi IC50 (ug/mL), 5 day thymidine incorporation)?
The IC50 was 2.6 µg/mL.

And the IC50 [8]?
The IC50 was 7.1 ± 1 µM.

What about the “cytotoxicity towards tumor cell lines in vitro” value [9] of the same compound?
The value was “exhibits cytotoxicity”.

What about the “Inhibition T/C %” value ([10]; 300 mg/kg ip) of the same compound?
The value was 97%.

What about the “Change in tumor Vol. (mm^3)” value ([10]; 300 mg/kg ip) of the same compound?
The value was “+36 mm^3”.

What about the “Ave. Tumor Diameter (mm ± SEM)” value ([10]; 300 mg/kg ip) of the same compound?
The value was 5.4 ± 1 mm.

What about the “Inhibition T/C %” value ([10]; 600 mg/kg ip) of the same compound?
Its value is 88%.

What about the “Change in tumor Vol. (mm^3)” value ([10]; 600 mg/kg ip) of the same compound?
Its value is “+142 mm^3”.

And the “Ave. Tumor Diameter (mm ± SEM)” value ([10]; 600 mg/kg ip)?
The value was 7.1 ± 2 mm.

What about the tumor growth inhibition ([10]; at a dose slightly below the maximum tolerated dose (MTD) for the mouse) of the same compound?
The tumor growth inhibition was “excellent tumor growth inhibition”.

What about the IC50 [11] of the same compound?
Its IC50 is 6.8 ± 1 µM.

And the “treatment of AKR leukemia” value ([12]; AKR mice)?
Its value is “treats AKR leukemia”.

What about the “toxicity in AKR mice” value ([12]; mouse, in vivo) of the same compound?
The value was “minimal toxicity”.

What about the IC50 [13] of the same compound?
Its IC50 is 9.1 ± 1.5 µM.

What about the IC50 [14] of the same compound?
Its IC50 is 11 ± 2 µM.

And the IC50 [15]?
The IC50 was 7.9 ± 1 µM.

And the IC50 [16]?
Its IC50 is 14 ± 2 µM.

What about the “cell cycle arrest and apoptosis” value [17] of the same compound?
Its value is “induces GI arrest and apoptosis”.
